From US11530244B2, “Cyclic polypeptides for PCSK9 inhibition” (priority 2018, dated 2022) come the findings set out here.

The test concerns the target human PCSK9 / human LDLR EGFa domain interaction (Homo sapiens (Human), UniProt Q8NBP7). Put plainly: TR-FRET assay of inhibition of the PCSK9-LDLR protein-protein interaction. It is filed as binding. The settings on record: TR-FRET, 20 nM human PCSK9, 20 nM human LDLR EGFa domain, 2 hours room temperature; read-out: IC50. The method, then:
A time-resolved fluorescence resonance energy (TR-FRET) assay was used to measure inhibition of the PCSK9-LDLR protein-protein interaction. Briefly, 20 nM avitag-biotinylated human PCSK9 was incubated with 20 nM his-tagged human LDLR EGFa domain in the presence of 5 nM LANCE Ulight Streptavidin (Perkin Elmer) and 5 nM europium-Anti-6×His (Perkin Elmer) for 2 hours covered at room temperature in buffer containing 50 mM HEPES, 150 mM NaCl, 5 mM CaCl2), 0.01% BSA and 0.01% Surfactant P20. Compounds were tested in dose-response and concentrations giving half-maximal inhibition calculated using a 4-parameter fit equation.
(In general: In TR-FRET formats the signal depends on donor and acceptor labels being close together.)

pIC50: −log10 of the molar value. Starred links: 1 amine or outer side, 2 acyl side, 3 side chain; linkers in the order of their positions; H or OH if unused. Positions of bridges follow the written chain, without caps; N, C: chain ends. Non-standard residues stand in square brackets, D forms with d. Residues, ends and D or L forms follow the SMILES beside them. Pro(3R,4S-CMe2) = CC1(C)[C@@H]2[C@@H](C(=O)O)NC[C@@H]21; Naphthalene(2,6-diCH2) = c1cc2cc(C[*:2])ccc2cc1C[*:1]; NMeTrp(1-Me) = CN[C@@H](Cc1cn(C)c2ccccc12)C(=O)O; Trp(5-F) = N[C@@H](Cc1c[nH]c2ccc(F)cc12)C(=O)O; Trp(7-aza) = N[C@@H](Cc1c[nH]c2ncccc12)C(=O)O; Bip = N[C@@H](Cc1ccc(-c2ccccc2)cc1)C(=O)O; NMeW = CN[C@@H](Cc1c[nH]c2ccccc12)C(=O)O; αMeW = C[C@](N)(Cc1c[nH]c2ccccc12)C(=O)O; X4 = O=C(CCSCc1cccc(CSCCN[*:1])c1)[*:2]; 1Nal = N[C@@H](Cc1cccc2ccccc12)C(=O)O; mXylylene = c1cc(C[*:1])cc(C[*:2])c1; NMeY = CN[C@@H](Cc1ccc(O)cc1)C(=O)O; X54 = c1cc2ccc(C[*:2])cc2cc1C[*:1]; X35 = COc1cc(C[*:1])cc(C[*:2])c1; hPhe = N[C@@H](CCc1ccccc1)C(=O)O; NMeD = CN[C@@H](CC(=O)O)C(=O)O; αMeK = C[C@](N)(CCCCN)C(=O)O; NMeV = CN[C@H](C(=O)O)C(C)C; αMeP = C[C@@]1(C(=O)O)CCCN1; Pip = O=C(O)[C@@H]1CCCCN1; Aze = O=C(O)[C@@H]1CCN1; Ac3c = NC1(C(=O)O)CC1; Aib = CC(C)(N)C(=O)O; Mpa = O=C(O)CCS; Sar = CNCC(=O)O

human PCSK9 / human LDLR EGFa domain interaction, sequence (Q8NBP7 153-692): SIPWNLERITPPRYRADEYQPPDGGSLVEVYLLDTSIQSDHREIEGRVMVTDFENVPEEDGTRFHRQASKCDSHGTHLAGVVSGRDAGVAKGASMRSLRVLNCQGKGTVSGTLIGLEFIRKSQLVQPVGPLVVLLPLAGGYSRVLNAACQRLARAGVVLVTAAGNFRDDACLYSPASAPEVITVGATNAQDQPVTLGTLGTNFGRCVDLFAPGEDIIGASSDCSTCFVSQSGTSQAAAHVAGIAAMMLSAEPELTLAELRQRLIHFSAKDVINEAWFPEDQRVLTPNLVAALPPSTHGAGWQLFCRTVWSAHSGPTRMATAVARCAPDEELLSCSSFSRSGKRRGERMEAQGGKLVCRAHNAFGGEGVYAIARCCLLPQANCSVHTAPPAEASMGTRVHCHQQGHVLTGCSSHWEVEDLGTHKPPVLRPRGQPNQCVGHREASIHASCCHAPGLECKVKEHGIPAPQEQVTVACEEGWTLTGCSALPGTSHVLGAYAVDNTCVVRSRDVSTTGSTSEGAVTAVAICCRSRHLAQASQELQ
human PCSK9 / human LDLR EGFa domain interaction, sequence (Q8NBP7 31-152 partner): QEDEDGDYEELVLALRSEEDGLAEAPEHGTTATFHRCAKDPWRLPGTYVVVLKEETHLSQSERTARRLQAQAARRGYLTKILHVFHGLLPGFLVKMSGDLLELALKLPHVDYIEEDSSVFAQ

In the case of `NCCCC[C@@H]1NC(=O)CCCn2cc(nn2)CC[C@@H](C(N)=O)NC(=O)[C@@H]2CCCN2C(=O)[C@H](Cc2ccc(O)cc2)NC(=O)[C@H](Cc2c[nH]cn2)NC(=O)[C@H](CC(=O)O)NC(=O)[C@H](Cc2c[nH]c3ccc(F)cc23)NC(=O)[C@H](Cc2c[nH]c3ccc(F)cc23)NC(=O)CNC1=O` [Compound 186], the pIC50 is 6.00 to 7.00.
On to `CN1CC(=O)N[C@H](C(N)=O)CSCc2cccc(c2)CSCCC(=O)N[C@@H](CCCCN)C(=O)NCC(=O)N[C@@H](Cc2c[nH]c3ccc(F)cc23)C(=O)N[C@@H](Cc2c[nH]c3ccc(F)cc23)C(=O)N[C@@H](CC(=O)O)C(=O)N[C@@H](Cc2cnc[nH]2)C(=O)N[C@@H](Cc2ccc(O)cc2)C1=O` [Compound 194] ([Mpa]KG[Trp(5-F)][Trp(5-F)]DHY[Sar]C-NH2; linker 1-10 via mXylylene), for which the pIC50 is 4.30 to 4.68.
Take `NCCCC[C@@H]1NC(=O)CCSCc2cccc(c2)CSC[C@@H](C(N)=O)NC(=O)C2(CC2)NC(=O)[C@H](Cc2ccc(O)cc2)NC(=O)[C@H](Cc2c[nH]cn2)NC(=O)[C@H](CC(=O)O)NC(=O)[C@H](Cc2c[nH]c3ccc(F)cc23)NC(=O)[C@H](Cc2c[nH]c3ccc(F)cc23)NC(=O)CNC1=O` [Compound 195] ([Mpa]KG[Trp(5-F)][Trp(5-F)]DHY[Ac3c]C-NH2; linker 1-10 via mXylylene): the pIC50 is 4.30 to 4.68.
With `COc1cc2cc(c1)CSC[C@@H](C(N)=O)NC(=O)[C@@H]1CCCN1C(=O)[C@H](Cc1ccc(O)cc1)NC(=O)[C@H](Cc1c[nH]cn1)NC(=O)[C@H](CC(=O)O)NC(=O)[C@H](Cc1c[nH]c3ccc(F)cc13)NC(=O)[C@H](Cc1c[nH]c3ccc(F)cc13)NC(=O)CNC(=O)[C@H](CCCCN)NC(=O)CCSC2` [Compound 197] ([Mpa]KG[Trp(5-F)][Trp(5-F)]DHYPC-NH2; linker 1-10 via X35) the figure was 4.30 to 4.68; with `CC1(C)[C@@H]2[C@H]3C(=O)N[C@H](C(N)=O)CSCc4cccc(c4)CSCCC(=O)N[C@@H](CCCCN)C(=O)NCC(=O)N[C@@H](Cc4c[nH]c5ccc(F)cc45)C(=O)N[C@@H](Cc4c[nH]c5ccc(F)cc45)C(=O)N[C@@H](CC(=O)O)C(=O)N[C@@H](Cc4c[nH]cn4)C(=O)N[C@@H](Cc4ccc(O)cc4)C(=O)N3C[C@@H]21` [Compound 201] ([Mpa]KG[Trp(5-F)][Trp(5-F)]DHY[Pro(3R,4S-CMe2)]C-NH2; linker 1-10 via mXylylene), 4.92 to 6.00; with `NCCCC[C@@H]1NC(=O)CCSCc2ccc3cc(ccc3c2)CSC[C@@H](C(N)=O)NC(=O)[C@@H]2CCCN2C(=O)[C@H](Cc2ccc(O)cc2)NC(=O)[C@H](Cc2c[nH]cn2)NC(=O)[C@H](CC(=O)O)NC(=O)[C@H](Cc2c[nH]c3ccc(F)cc23)NC(=O)[C@H](Cc2c[nH]c3ccc(F)cc23)NC(=O)CNC1=O` [Compound 203] ([Mpa]KG[Trp(5-F)][Trp(5-F)]DHYPC-NH2; linker 1-10 via Naphthalene(2,6-diCH2)), 4.92 to 6.00.
With `NCCCC[C@@H]1NC(=O)CCSCc2ccc3ccc(cc3c2)CSC[C@@H](C(N)=O)NC(=O)[C@@H]2CCCN2C(=O)[C@H](Cc2ccc(O)cc2)NC(=O)[C@H](Cc2c[nH]cn2)NC(=O)[C@H](CC(=O)O)NC(=O)[C@H](Cc2c[nH]c3ccc(F)cc23)NC(=O)[C@H](Cc2c[nH]c3ccc(F)cc23)NC(=O)CNC1=O` [Compound 206] ([Mpa]KG[Trp(5-F)][Trp(5-F)]DHYPC-NH2; linker 1-10 via X54) the figure was 4.30 to 4.68; with `NCCCC[C@@H]1NC(=O)CCSCc2cccc(c2)CSC[C@@H](C(N)=O)NC(=O)[C@@H]2CCN2C(=O)[C@H](Cc2ccc(O)cc2)NC(=O)[C@H](Cc2cnc[nH]2)NC(=O)[C@H](CC(=O)O)NC(=O)[C@H](Cc2c[nH]c3ccc(F)cc23)NC(=O)[C@H](Cc2c[nH]c3ccc(F)cc23)NC(=O)CNC1=O` [Compound 207] ([Mpa]KG[Trp(5-F)][Trp(5-F)]DHY[Aze]C-NH2; linker 1-10 via mXylylene), 4.30 to 4.68.
With `NCCCC[C@@H]1NC(=O)CCSCc2cccc(c2)CSC[C@@H](C(N)=O)NC(=O)[C@@H]2CCCCN2C(=O)[C@H](Cc2ccc(O)cc2)NC(=O)[C@H](Cc2cnc[nH]2)NC(=O)[C@H](CC(=O)O)NC(=O)[C@H](Cc2c[nH]c3ccc(F)cc23)NC(=O)[C@H](Cc2c[nH]c3ccc(F)cc23)NC(=O)CNC1=O` [Compound 208] ([Mpa]KG[Trp(5-F)][Trp(5-F)]DHY[Pip]C-NH2; linker 1-10 via mXylylene) the figure was 4.30 to 4.68; with `NCCCC[C@@H]1NC(=O)CCSCc2cccc(c2)CSC[C@@H](C(N)=O)NC(=O)[C@@H]2CCCN2C(=O)[C@H](Cc2ccc(O)cc2)NC(=O)[C@H](Cc2c[nH]cn2)NC(=O)[C@H](CC(=O)O)NC(=O)[C@H](Cc2c[nH]c3ccc(F)cc23)NC(=O)[C@H](Cc2cccc3ccccc23)NC(=O)CNC1=O` [Compound 209] ([Mpa]KG[1Nal][Trp(5-F)]DHYPC-NH2; linker 1-10 via mXylylene), 4.92 to 6.00; with `NCCCC[C@@H]1NC(=O)CCSCc2cccc(c2)CSC[C@@H](C(N)=O)NC(=O)[C@@H]2CCCN2C(=O)[C@H](Cc2ccc(O)cc2)NC(=O)[C@H](Cc2c[nH]cn2)NC(=O)[C@H](CC(=O)O)NC(=O)[C@H](Cc2c[nH]c3ccc(F)cc23)NC(=O)[C@H](CCc2ccccc2)NC(=O)CNC1=O` [Compound 211] ([Mpa]KG[hPhe][Trp(5-F)]DHYPC-NH2; linker 1-10 via mXylylene), 4.92 to 6.00.
As for `C[C@@]1(Cc2c[nH]c3ccccc23)NC(=O)CNC(=O)[C@H](CCCCN)NC(=O)CCSCc2cccc(c2)CSC[C@@H](C(N)=O)NC(=O)[C@@H]2CCCN2C(=O)[C@H](Cc2ccc(O)cc2)NC(=O)[C@H](Cc2c[nH]cn2)NC(=O)[C@H](CC(=O)O)NC(=O)[C@H](Cc2c[nH]c3ccc(F)cc23)NC1=O` [Compound 212] ([Mpa]KG[αMeW][Trp(5-F)]DHYPC-NH2; linker 1-10 via mXylylene), the pIC50 is 6.00 to 7.00.
Take `C[C@@]1(CCCCN)NC(=O)CCSCc2cccc(c2)CSC[C@@H](C(N)=O)NC(=O)[C@@H]2CCCN2C(=O)[C@H](Cc2ccc(O)cc2)NC(=O)[C@H](Cc2c[nH]cn2)NC(=O)[C@H](CC(=O)O)NC(=O)[C@H](Cc2c[nH]c3ccc(F)cc23)NC(=O)[C@H](Cc2c[nH]c3ccc(F)cc23)NC(=O)CNC1=O` [Compound 214] ([Mpa][αMeK]G[Trp(5-F)][Trp(5-F)]DHYPC-NH2; linker 1-10 via mXylylene): the pIC50 was 4.92 to 6.00.
Next, `CC1(C)NC(=O)[C@H](Cc2ccc(O)cc2)NC(=O)[C@H](Cc2cnc[nH]2)NC(=O)[C@H](CC(=O)O)NC(=O)[C@H](Cc2c[nH]c3ccc(F)cc23)NC(=O)[C@H](Cc2c[nH]c3ccc(F)cc23)NC(=O)CNC(=O)[C@H](CCCCN)NC(=O)CCSCc2cccc(c2)CSC[C@@H](C(N)=O)NC1=O` [Compound 218] ([Mpa]KG[Trp(5-F)][Trp(5-F)]DHY[Aib]C-NH2; linker 1-10 via mXylylene): 6.00 to 7.00.
With `CC(C)[C@H]1C(=O)N[C@H](C(N)=O)CSCc2cccc(c2)CSCCC(=O)N[C@@H](CCCCN)C(=O)NCC(=O)N[C@@H](Cc2c[nH]c3ccc(F)cc23)C(=O)N[C@@H](Cc2c[nH]c3ccc(F)cc23)C(=O)N[C@@H](CC(=O)O)C(=O)N[C@@H](Cc2cnc[nH]2)C(=O)N[C@@H](Cc2ccc(O)cc2)C(=O)N1C` [Compound 220] ([Mpa]KG[Trp(5-F)][Trp(5-F)]DHY[NMeV]C-NH2; linker 1-10 via mXylylene) the figure was 4.30 to 4.68; with `CN1CC(=O)N[C@@H](Cc2c[nH]c3ccccc23)C(=O)N[C@@H](Cc2c[nH]c3ccccc23)C(=O)N(C)[C@@H](CC(=O)O)C(=O)N[C@@H](Cc2cnc[nH]2)C(=O)N(C)[C@@H](Cc2ccc(O)cc2)C(=O)N2CCC[C@H]2C(=O)N[C@H](C(N)=O)CSCc2cccc(c2)CSCCC(=O)N[C@@H](CCCCN)C1=O` [Compound 221] ([Mpa]K[Sar]WW[NMeD]H[NMeY]PC-NH2; linker 1-10 via mXylylene), 4.30 to 4.68.
With `CN1CC(=O)N[C@@H](Cc2c[nH]c3ccccc23)C(=O)N[C@@H](Cc2c[nH]c3ccccc23)C(=O)N(C)[C@@H](CC(=O)O)C(=O)N[C@@H](Cc2c[nH]cn2)C(=O)N[C@@H](Cc2ccc(O)cc2)C(=O)N2CCC[C@H]2C(=O)N[C@H](C(N)=O)CSCc2cccc(c2)CSCCC(=O)N[C@@H](CCCCN)C1=O` [Compound 222] ([Mpa]K[Sar]WW[NMeD]HYPC-NH2; linker 1-10 via mXylylene), the pIC50 is 4.30 to 4.68.
In the case of `NCCCC[C@@H]1NC(=O)CCSCc2cccc(c2)CSC[C@@H](C(N)=O)NC(=O)[C@@H]2CCCN2C(=O)[C@H](Cc2ccc(-c3ccccc3)cc2)NC(=O)[C@H](Cc2c[nH]cn2)NC(=O)[C@H](CC(=O)O)NC(=O)[C@H](Cc2c[nH]c3ccc(F)cc23)NC(=O)[C@H](Cc2c[nH]c3ccc(F)cc23)NC(=O)CNC1=O` [Compound 243] ([Mpa]KG[Trp(5-F)][Trp(5-F)]DH[Bip]PC-NH2; linker 1-10 via mXylylene), the pIC50 was 4.92 to 6.00.
Next, `C[C@H]1NC(=O)[C@H](CCCCN)NC(=O)CCSCc2cccc(c2)CSCCNC(=O)[C@]2(C)CCCN2C(=O)[C@H](Cc2c[nH]c3ncccc23)NC(=O)[C@H](Cc2cnc[nH]2)NC(=O)[C@H](CC(=O)O)NC(=O)[C@H](Cc2c[nH]c3ccc(F)cc23)NC(=O)[C@H](Cc2c[nH]c3ccc(F)cc23)NC1=O` [Compound 247] (cyclo(DH[Trp(7-aza)][αMeP][X4]K[dA][Trp(5-F)][Trp(5-F)])): 6.00 to 7.00; `C[C@@H]1NC(=O)CCSCc2cccc(c2)CSC[C@@H](C(N)=O)NC(=O)[C@@H]2CCCN2C(=O)[C@H](Cc2ccc(O)cc2)N(C)C(=O)[C@H](Cc2c[nH]cn2)NC(=O)[C@H](CC(=O)O)N(C)C(=O)[C@H](Cc2cn(C)c3ccccc23)N(C)C(=O)[C@H](Cc2c[nH]c3ccccc23)N(C)C(=O)CN(C)C1=O` [Compound 259] ([Mpa]A[Sar][NMeW][NMeTrp(1-Me)][NMeD]H[NMeY]PC-NH2; linker 1-10 via mXylylene): 4.92 to 6.00.

By pIC50 is commonly meant −log10 of the IC50, conventionally taken in molar units.
